Converted amounts (≈) assume the structure as drawn.

Test in all cases: ≥ marks a high value that may be exact or a test limit, other limits are often not marked, values filed in µg/mL are converted to µM
Assay [1] has as its system Streptococcus mutans UA159.
In assay [2] the test system is Streptococcus sanguinis ATCC 10556.
The test system of assay [3] is Streptococcus sobrinus ATCC 6715.
Assay [4] has as its system Pseudomonas aeruginosa 0108.
Assay [5] deals with Pseudomonas aeruginosa CGMCC 1.860.
Assay [6] relates to Staphylococcus epidermidis CICC 23664.
Assay [7] has as its system Staphylococcus epidermidis.
Assay [8] concerns Bacillus cereus ATCC 11778.
In assay [9] the test system is Escherichia coli ATCC 25922.
Assay [10] relates to Klebsiella aerogenes ATCC 13048.
Assay [11] concerns Salmonella enterica subsp. enterica serovar Typhimurium ATCC 14028.
For assay [12], the system named is Staphylococcus aureus ATCC 29213.
Assay [13] concerns Erwinia amylovora PMV 6076.
Assay [14] deals with Pseudomonas syringae pv. syringae EPS 94.
Assay [15] concerns Xanthomonas campestris pv. Vesicatoria 2133-2.
The test system of assay [16] is Escherichia coli C600.
Assay [17] concerns Pseudomonas aeruginosa PAO1.
Assay [18] deals with Staphylococcus aureus 209P.
Assay [19] deals with Cronobacter muytjensii ATCC 51329.
Assay [20] deals with Cronobacter sakazakii ATCC BAA-894.
For assay [21], the system named is Cronobacter sakazakii DPC 6440.
Assay [22] concerns Cronobacter sakazakii DSM 4485.
Assay [23] has as its system Escherichia coli NCIMB 11843.
Assay [24] concerns Klebsiella pneumoniae NCIMB 13218.
Assay [25] concerns Pseudomonas aeruginosa ATCC 27853.
For assay [26], the system named is Pseudomonas fluorescens NCIMB 9046.
Assay [27] deals with Salmonella enterica subsp. enterica serovar Typhimurium LT2.
Assay [28] concerns Staphylococcus aureus NCTC 8325-4.
Assay [29] relates to Staphylococcus aureus Newman.
Assay [30] relates to Staphylococcus aureus RF122.
In assay [31] the test system is Staphylococcus aureus RN4220.
Assay [32] concerns Staphylococcus aureus SA113.

Turning to `CC(C)[C@H](NC(=O)[C@H](CCCCN)NC(=O)[C@H](C)NC(=O)[C@H](C)NC(=O)[C@H](CCCCN)NC(=O)[C@H](CCCCN)NC(=O)[C@H](Cc1ccccc1)NC(=O)[C@H](Cc1ccccc1)NC(=O)[C@H](CCCCN)NC(=O)CNC(=O)[C@H](Cc1c[nH]c2ccccc12)NC(=O)CN)C(=O)NCC(=O)N[C@@H](CCCCN)C(=O)N[C@@H](CCCCN)C(=O)N[C@H](C(=O)NCC(=O)O)C(C)C` [GWGKFFKKAAKVGKKVG], the MIC in assay [1], in assay [2] and in assay [3] was not below 279 µM in each case.

With `NCCCC[C@H](NC(=O)CNC(=O)[C@H](Cc1ccccc1)NC(=O)[C@H](CCCCN)NC(=O)[C@H](Cc1ccccc1)NC(=O)[C@H](Cc1ccccc1)NC(=O)[C@H](CCCCN)NC(=O)[C@H](CCCCN)NC(=O)[C@H](Cc1ccccc1)NC(=O)[C@H](Cc1ccccc1)NC(=O)[C@H](CCCCN)NC(=O)CNC(=O)[C@H](Cc1c[nH]c2ccccc12)NC(=O)CN)C(=O)O` [GWGKFFKKFFKFGK], the minimal inhibitory concentration (MIC) in assay [1], in assay [2] and in assay [3] was 9.13 µM (≈ 16 µg/mL) in each case.

As to `CC[C@H](C)[C@H](N)C(=O)N[C@@H](CCCCN)C(=O)N[C@@H](CCCCN)C(=O)N[C@H](C(=O)N[C@@H](CC(C)C)C(=O)N[C@@H](CO)C(=O)N[C@@H](CCCCN)C(=O)N[C@H](C(=O)N[C@@H](CCCCN)C(=O)N[C@@H](CCCCN)C(=O)N[C@@H](CC(C)C)C(=O)N[C@@H](Cc1c[nH]c2ccccc12)C(=O)N[C@@H](CCCCN)C(N)=O)[C@@H](C)CC)[C@@H](C)CC` [IKKILSKIKKLWK], the MIC in assay [4] amounted to 25 µM (≈ 40.6 µg/mL); in assay [5] it was 25 µM (≈ 40.6 µg/mL); in [6] it was 12.5 µM (≈ 20.3 µg/mL); in [7] it was 12.5 µM (≈ 20.3 µg/mL).

For `CC[C@H](C)[C@H](N)C(=O)N[C@@H](CCCCN)C(=O)N[C@@H](CCCCN)C(=O)N[C@H](C(=O)N[C@@H](CC(C)C)C(=O)N[C@@H](CO)C(=O)N[C@@H](CCCCN)C(=O)N[C@H](C(=O)N[C@@H](CCCCN)C(=O)N[C@@H](CCCCN)C(=O)N[C@@H](Cc1c[nH]c2ccccc12)C(=O)N[C@@H](CC(C)C)C(=O)N[C@@H](CCCCN)C(N)=O)[C@@H](C)CC)[C@@H](C)CC` [IKKILSKIKKWLK], the MIC was 25 µM (≈ 40.6 µg/mL) in assay [4], 12.5 µM (≈ 20.3 µg/mL) in assay [5], 3.12 µM (≈ 5.07 µg/mL) in [6] and 12.5 µM (≈ 20.3 µg/mL) in [7].

In the case of `CC[C@H](C)[C@H](N)C(=O)N[C@@H](CC(C)C)C(=O)NCC(=O)N[C@@H](CCCCN)C(=O)N[C@H](C(=O)N[C@@H](Cc1c[nH]c2ccccc12)C(=O)N[C@@H](CCC(=O)O)C(=O)NCC(=O)N[C@H](C(=O)N[C@@H](CCCCN)C(=O)N[C@@H](CO)C(=O)N[C@@H](CC(C)C)C(=O)N[C@@H](Cc1ccccc1)C(N)=O)C(C)C)C(C)C` [ILGKVWEGVKSLF], the minimum inhibitory concentration (MIC) is not below 67.8 µM in [8]; more than 67.8 µM in assay [9]; not below 67.8 µM in [10]; more than 67.8 µM in assay [11]; more than 67.8 µM in [12].

For `CC[C@H](C)[C@H](NC(=O)[C@H](CCCCN)NC(=O)[C@H](CCCCN)NC(=O)[C@H](Cc1ccccc1)NC(=O)[C@H](CC(C)C)NC(=O)[C@H](CCCCN)NC(=O)[C@@H](N)CCCCN)C(=O)N[C@@H](CC(C)C)C(=O)N[C@@H](CCCCN)C(=O)N[C@@H](Cc1ccc(O)cc1)C(=O)N[C@@H](CC(C)C)C(=O)N[C@@H](C)C(=O)NCC(=O)N1CCC[C@H]1C(=O)N[C@@H](C)C(=O)N[C@@H](CCCCN)C(=O)N[C@@H](Cc1ccccc1)C(=O)N[C@@H](CC(C)C)C(=O)N[C@@H](Cc1cnc[nH]1)C(=O)N[C@@H](CO)C(=O)N[C@@H](C)C(=O)N[C@@H](CCCCN)C(=O)N[C@@H](CCCCN)C(=O)N[C@@H](CC(=O)O)C(=O)N[C@@H](CCC(=O)O)C(=O)N[C@@H](CC(C)C)C(=O)O` [KKLFKKILKYLAGPAKFLHSAKKDEL], the MIC stood at 3.54 µM (≈ 10.7 µg/mL) in assay [13], 8.66 µM (≈ 26.1 µg/mL) in assay [14] and 6.12 µM (≈ 18.5 µg/mL) in assay [15].

`CC(C)[C@@H]1NC(=O)CNC(=O)[C@H](CCCN=C(N)N)NC(=O)[C@H](CCCN=C(N)N)NC(=O)[C@H](CCCN=C(N)N)NC(=O)[C@H](C)NC(=O)[C@H](Cc2ccc(O)cc2)NC(=O)[C@H](C(C)C)NC(=O)[C@@H](NC(=O)[C@H](Cc2c[nH]c3ccccc23)NC(=O)[C@@H](N)CCCN=C(N)N)CSSC[C@@H](C(=O)N[C@@H](Cc2c[nH]c3ccccc23)C(=O)O)NC(=O)[C@H](CCCN=C(N)N)NC(=O)[C@H](CCCN=C(N)N)NC(=O)[C@H](Cc2ccc(O)cc2)NC(=O)[C@H](CCCN=C(N)N)NC1=O` [RWCVYARRRGVRYRRCW]: the MIC in [16] came to 3.13 µM (≈ 7.33 µg/mL); in assay [17] it was 50 µM (≈ 117 µg/mL); in [18] it was 3.13 µM (≈ 7.33 µg/mL).

In the case of `CC(C)C[C@H](NC(=O)[C@H](C)NC(=O)[C@H](CCC(=O)O)NC(=O)[C@H](CC(N)=O)NC(=O)[C@H](CC(C)C)NC(=O)[C@@H](N)C(C)C)C(=O)N[C@@H](CC(C)C)C(=O)N[C@@H](CCCN=C(N)N)C(=O)O` [VLNEALLR], the MIC in assay [19] is not below 625 µM; in [20], not below 1250 µM; in assay [21] it was not below 625 µM; in assay [22], not below 1250 µM; in [23] it was not below 2500 µM; in assay [24], not below 2500 µM. Further, the MIC in assay [25] was 32 µM (≈ 29.7 µg/mL); in assay [26], not below 2500 µM; in assay [27] it was not below 1250 µM; in assay [28], not below 1250 µM; in assay [29], not below 1250 µM; in [30] it was not below 1250 µM. For the same compound, the MIC in [31] and in [32] was not below 1250 µM each time.

Regarding `CC(C)C[C@H](NC(=O)[C@H](CC(C)C)NC(=O)[C@H](CC(N)=O)NC(=O)[C@H](CCC(=O)O)NC(=O)[C@H](CC(N)=O)NC(=O)[C@H](CC(C)C)NC(=O)[C@@H](N)C(C)C)C(=O)N[C@@H](C)C(=O)O` [VLNENLLA], the MIC in assay [19], in [20], in assay [21], in assay [22], in assay [23] and in [24] was not below 2500 µM in each case. For the same compound, the MIC in assay [25] is 32 µM (≈ 28.3 µg/mL); in assay [26], not below 2500 µM; in assay [27] it was not below 1250 µM; in [28], not below 1250 µM; in [29] it was not below 1250 µM; in assay [30], not below 1250 µM. Also, the MIC in [31] and in [32] was not below 1250 µM each time.

Broadly, the MIC is the lowest concentration that inhibits growth of the organism. Low readings indicate a more susceptible organism, high ones a less susceptible organism.

Values taken from DBAASP.
